Assay: Chemical stability of calcipotriol in contact with container inner coating
Type: physicochemical

chemical stability of calcipotriol (epoxyphenol resin inner lacquer): unacceptable chemical degradation
chemical stability of calcipotriol (polyimide-polyamide resin as inner coating): satisfactory
Structure (SMILES): C=C1/C(=C\C=C2/CCC[C@]3(C)[C@@H]([C@H](C)/C=C/[C@@H](O)C4CC4)CC[C@@H]23)C[C@@H](O)C[C@@H]1O [calcipotriol]
